This is an account of results in US5502060A, “HIV protease inhibitors” (Merck & Co., Inc., priority 1994, dated 1996).

Molecules are shown by their SMILES.

For the assay, the target named is HIV protease (Human immunodeficiency virus type 1 group M subtype B, UniProt P03366). Put plainly: biochemical. The conditions noted are these: protease expressed in Escherichia coli; peptide substrate Val-Ser-Gln-Asn-(betanapthyl)Ala-Pro-Ile-Val; 50 mM Na acetate, pH 5.5, 30° C., 1 hour; HPLC. The procedure: Assay for Inhibition of Microbial Expressed Viral Protease
Inhibition studies of the reaction of the protease expressed in Escherichia coli with a peptide substrate Val-Ser-Gln-Asn-(betanapthyl)Ala-Pro-Ile-Val, 0.5 mg/mL at the time the reaction is initiated! were in 50 mM Na acetate, pH 5.5, at 30° C. for 1 hour. Various concentrations of inhibitor in 1.0 ul DMSO were added to 25 ul of the peptide solution in water. The reaction is initiated by the addition of 15 ul of 0.33 nM protease (0.11 ng) in a solution of 0.133 M Na acetate pH 5.5 and 0.26% bovine serum albumin. The reaction was quenched with 160 ul of 5% phosphoric acid. Products of the reaction were separated by HPLC (VYDAC wide pore 5 cm C-18reverse phase, acetonitrile gradient, 0.1% phosphoric acid). The extent of inhibition of the reaction was determined from the peak heights of the products.
As usually defined, the IC50 is the concentration needed to halve the response being measured. Higher therefore signals weaker potency in that assay. Take `CC(C)(C)NC(=O)[C@@H]1C[C@@H]2CCCC[C@@H]2CN1C[C@@H](O)[C@H](Cc1ccccc1)NC(=O)O[C@H]1CCS(=O)(=O)C1` [B, Cis-N-tert-butyl-decahydro-2 2(R)-hydroxy-4-phenyl-3(S)-3(S)-1,1-dioxotetr ahydrothien-3-yloxycarbonylamino !-butyl!-(4aS, 8aS )-isoquinoline-3(S)-carboxamide hydrate]: the IC50 is around 59 nM. Take `CC(C)(C)NC(=O)[C@@H]1C[C@@H]2CCCC[C@@H]2CN1C[C@@H](O)[C@H](Cc1ccccc1)NC(=O)O[C@H]1CCOC1` [Compound A, cis-N-tert-butyl-decahydro-2 2(R)hydroxy-4-phenyl-3(S)-3(S)-tetrahydrofuranyloxycarbonylamino !-butyl!-(4aS, 8aS )-isoquinoline-3(S)carboxamide]: the IC50 was around 260 nM. `CC(C)[C@@H]1[C@H](OC(=O)N[C@@H](Cc2ccccc2)[C@H](O)CN2C[C@H]3CCCC[C@H]3C[C@H]2C(=O)NC(C)(C)C)CCS1(=O)=O` [Compound C, N-tert-butyl-decahydro-2 2(R)-hydroxy-4-phenyl-3(S)-1,1-dioxo-2(R)-methylethyl-3(R)-tetrahydrothienyloxycarbonylamino!butyl!-(4aS, 8aS) isoquinoline-3(S)-carboxamide] had an IC50 of around 4 nM.
